Laboratory results published in ChEMBL document CHEMBL5614418, “Discovery of novel dihydropyrrolidone-thiadiazole compound crosstalk between the YycG/F two-component regulatory pathway and cell membrane homeostasis to combat methicillin-resistant Staphylococcus aureus” (Eur J Med Chem, 2024).
≈ marks a conversion by molar mass, not a printed value. Calls of active or inactive are those of the source. No cut-off for these calls is given here.

How the values were obtained:
[1] = test system: Staphylococcus epidermidis; test: Antibacterial activity against Staphylococcus epidermidis SE1457 by broth microdilution method; type: functional
Enterococcus faecalis = test: Antibacterial activity against Enterococcus faecalis OG1RF by broth microdilution method; type: functional
[2] = Hemolytic activity against human erythrocytes measured after 1 hr; type: toxicity, cell-based, Erythrocyte
Staphylococcus aureus [3] = test: Antibacterial activity against methicillin sensitive Staphylococcus aureus SA113 by broth microdilution method; type: functional
Enterococcus faecium = test: Antibacterial activity against Enterococcus faecium EFM64 by broth microdilution method; type: functional
[4] = Cytotoxicity against human LX2 cells incubated for 24 hrs by CCK8 assay; type: toxicity, cell-based; conditions: LX-2 cells
[5] = target: T1, Sensor protein kinase WalK (Staphylococcus aureus, UniProt Q9RDT3); test: Inhibition of Staphylococcus aureus YycG expressed in Escherichia coli preincubated for 30 mins followed by ATP addition and measured after 30 mins by kinase-Glo luminescent assay
T1 sequence (Q9RDT3 whole entry): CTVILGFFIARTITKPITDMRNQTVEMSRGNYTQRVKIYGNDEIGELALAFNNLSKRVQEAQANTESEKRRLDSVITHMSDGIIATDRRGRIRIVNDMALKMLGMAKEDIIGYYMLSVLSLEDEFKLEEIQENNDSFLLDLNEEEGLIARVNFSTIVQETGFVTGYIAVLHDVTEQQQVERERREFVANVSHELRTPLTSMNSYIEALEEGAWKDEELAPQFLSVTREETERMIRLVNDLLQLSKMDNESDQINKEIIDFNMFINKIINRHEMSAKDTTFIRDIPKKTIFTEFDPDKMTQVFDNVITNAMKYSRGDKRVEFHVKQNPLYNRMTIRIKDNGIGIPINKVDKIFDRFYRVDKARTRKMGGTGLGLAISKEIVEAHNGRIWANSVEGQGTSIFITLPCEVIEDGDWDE

Staphylococcus aureus [6] = test: Induction of resistance development in methicillin sensitive Staphylococcus aureus SA113 assessed as fold increase in MIC at 1/2 MIC incubated for 16 hrs after 20 serial passages; type: functional
[7] = test system: Staphylococcus epidermidis; test: Induction of resistance development in Staphylococcus epidermidis SE1457 assessed as fold increase in MIC at 1/2 MIC incubated for 16 hrs after 20 serial passages; type: functional
Staphylococcus aureus [8] = test: Antibacterial activity against methicillin resistant Staphylococcus aureus USA300 infected in BALB/c mouse pneumonia model assessed as log reduction in lung bacterial count at 20 mg/kg, ip administered every 12 hrs for 3 times and measured after 48 hrs; type: functional
Staphylococcus aureus [9] = test: Antibacterial activity against methicillin resistant Staphylococcus aureus USA300 infected in BALB/c mouse pneumonia model assessed as increase in mouse survival rate at 20 mg/kg, ip administered every 12 hrs for 3 times and measured after 48 hrs; type: functional, organism-based

Row | SMILES | MIC [1] | MIC (Enterococcus faecalis) | HC50 at 1 h [2] | MIC (Staphylococcus aureus [3]) | MIC (Enterococcus faecium) | CC50 at 24 h [4] | IC50 [5] | fold change (FC) (Staphylococcus aureus [6]) | fold change (FC) [7] | log(activity) (Staphylococcus aureus [8]) | Activity (Staphylococcus aureus [9])
1 | O=C(C1=C(O)C(=O)N(c2nnc(SCc3ccccc3Cl)s2)C1c1cccc(O)c1)c1cc2ccccc2o1 (stereo not given) | > 100 µM | > 100 µM | > 200 µM | > 100 µM | > 100 µM | > 100 µM | – | – | – | – | –
2 | O=C(O)COc1ccc(C2C(C(=O)c3cc4ccccc4o3)=C(O)C(=O)N2c2nnc(SCc3ccccc3Cl)s2)cc1 (stereo not given) | > 100 µM | > 100 µM | > 200 µM | > 100 µM | > 100 µM | > 100 µM | – | – | – | – | –
3 | O=C(C1=C(O)C(=O)N(c2nnc(SCc3ccccc3)s2)C1c1ccccc1O)c1ccc(C(F)(F)F)cc1 (stereo not given) | > 100 µM | > 100 µM | > 200 µM | > 100 µM | > 100 µM | > 100 µM | – | – | – | – | –
4 | O=C(C1=C(O)C(=O)N(c2nnc(SCc3ccccc3)s2)C1c1cccc(O)c1O)c1cc2ccccc2o1 (stereo not given) | 50 µM (≈ 27.9 µg/mL) | 25 µM (≈ 13.9 µg/mL) | > 200 µM | 50 µM (≈ 27.9 µg/mL) | 25 µM (≈ 13.9 µg/mL) | > 100 µM | – | – | – | – | –
5 | COc1ccc(O)c(C2C(C(=O)c3cc4ccccc4o3)=C(O)C(=O)N2c2nnc(SCc3ccccc3Cl)s2)c1 (stereo not given) | 50 µM (≈ 30.3 µg/mL) | 100 µM (≈ 60.6 µg/mL) | > 200 µM | 50 µM (≈ 30.3 µg/mL) | 100 µM (≈ 60.6 µg/mL) | > 100 µM | – | – | – | – | –
6 | O=C(C1=C(O)C(=O)N(c2nnc(SCc3cccc(Cl)c3)s2)C1c1ccccc1O)c1cc2ccccc2o1 (stereo not given) | 25 µM (≈ 14.4 µg/mL) | 25 µM (≈ 14.4 µg/mL) | > 200 µM | 50 µM (≈ 28.8 µg/mL) | 25 µM (≈ 14.4 µg/mL) | > 100 µM | – | – | – | – | –
7 | COc1cc(C2C(C(=O)c3cc4ccccc4o3)=C(O)C(=O)N2c2nnc(SCc3ccccc3Cl)s2)ccc1O (stereo not given) | 25 µM (≈ 15.2 µg/mL) | > 100 µM | > 200 µM | > 100 µM | > 100 µM | > 100 µM | 46.1 µM | – | – | – | –
8 | O=C(C1=C(O)C(=O)N(c2nnc(SCc3ccccc3)s2)C1c1ccc(O)cc1O)c1cc2ccccc2o1 (stereo not given) | > 100 µM | > 100 µM | > 200 µM | > 100 µM | > 100 µM | > 100 µM | – | – | – | – | –
9 | COc1ccc(C(=O)C2=C(O)C(=O)N(c3nnc(SCc4ccccc4)s3)C2c2ccccc2O)cc1 (stereo not given) | > 100 µM | > 100 µM | > 200 µM | > 100 µM | > 100 µM | > 100 µM | – | – | – | – | –
10 | CC(=O)NC[C@H]1CN(c2ccc(N3CCOCC3)c(F)c2)C(=O)O1 | – | – | – | – | – | – | – | 4 | 4 | – | –
11 | CN[C@H](CC(C)C)C(=O)N[C@H]1C(=O)N[C@@H](CC(N)=O)C(=O)N[C@H]2C(=O)N[C@H]3C(=O)N[C@H](C(=O)N[C@H](C(=O)O)c4cc(O)cc(O)c4-c4cc3ccc4O)[C@H](O)c3ccc(c(Cl)c3)Oc3cc2cc(c3O[C@@H]2O[C@H](CO)[C@@H](O)[C@H](O)[C@H]2O[C@H]2C[C@](C)(N)[C@H](O)[C@H](C)O2)Oc2ccc(cc2Cl)[C@H]1O [VANCOMYCIN] | – | – | – | – | – | – | – | – | – | 2 | Active
12 | O=C(C1=C(O)C(=O)N(c2nnc(SCc3ccccc3Cl)s2)C1c1ccc(O)c(Br)c1)c1cc2ccccc2o1 (stereo not given) | > 100 µM | > 100 µM | > 200 µM | > 100 µM | > 100 µM | > 100 µM | – | – | – | – | –
